Reference: patent US10092493B2, “Composition of skin external application for anti-aging” (AMOREPACIFIC CORPORATION, priority 2005, dated 2018)

Assays:
[1] = system: Type I Collagenase (MMP-1); experiment: Type I collagenase (MMP-1) biosynthesis with UV-A, TNF-α and antibody against TNF-α (ELISA); assay type: cell-based, Human
Protocol: Human fibroblasts isolated from the skin of new born baby were cultured in a 48-well plate type incubator at a concentration of 10^4. after 24 hours, the plate was irradiated by UV-A at 15 J/cm^2 and antibody against tumor necrosis factor alpha was added thereto in a concentration of 1 ug/ml. At the second day of cultivation, the supernatants were harvested and subjected to ELISA (AP biotech RPN2610) to determine the amount of produced type I collagenase. The result is shown in Table 15 as comparative values, referred to 100 of control which was not treated.

laminin 10/11 = experiment: Biosynthesis of laminin 10/11 in keratinocytes (Western Blot); assay type: cell-based; details: human keratinocytes, 10 ppm, 24 hours; control = 100
Protocol: Human keratinocytes were cultured in a 24-well plate type incubator at a concentration of 5×10^4. The media were exchanged with new medium containing 10 ppm of each test substance. After 24 hours of cultivation, each supernatant was harvested and subjected to the Western Blot method to measure the amount of produced laminin 10/11.

pro-collagen = experiment: Biosynthesis of collagen (pro-collagen ELISA) in fibroblasts; assay type: cell-based, Human; details: 48 hours, un-treated control = 100
Protocol: Human fibroblasts were cultured in a 48-well plate type incubator at a concentration of 10^4. The media were exchanged with new medium (theanine: 1, 10, 100 um) containing each test substance of Table 7 at a concentration of 0.001 μM, 0.01 μM, 0.1 μM, 0.5 μM and 2 μM. After 48 hours of cultivation, each supernatant was harvested and subjected to ELISA (Takara MK101) to measure the amount of produced pro-collagen.
Also, in order to examine the synergic effect of theanine on collagen biosynthesis, theanine 10 μM was added to catechin at different 4 concentrations and the result is shown in Table 8.

type IV collagen = experiment: Biosynthesis of type IV collagen in keratinocytes (Dot Blot); assay type: cell-based; details: human keratinocytes, 10 ppm, 24 hours; control = 100
Protocol: The media were exchanged with new medium containing 10 ppm of each test substance. After 24 hours of cultivation, each supernatant was harvested and subjected to the Dot Blot method to measure the amount of produced type IV collagen.

[2] = system: Tumor Necrosis Factor alpha (TNF-α); experiment: Inhibition of TNF-α biosynthesis after UV irradiation (ELISA); assay type: cell-based; details: human keratinocytes, UV-B 30 mJ/cm^2, 10 μM (10 ppm of extract), 6 to 24 hours; UV control = 100
Protocol: Human keratinocytes were cultured in a 12-well plate type incubator at a concentration of 10^4. The plate was irradiated by UV-B at 30 mJ/cm^2. The media were exchanged with new medium containing 10 μM of each test substance (10 ppm of extract). After 6 to 24 hours of cultivation, the cells were harvested and subjected to ELISA (Pharmingen 555212) to determine the amount of produced tumor necrosis factor α (TNF-α). As the positive control, Wy-14,643 was used.

type VII collagen = experiment: Biosynthesis of type VII collagen in fibroblasts (Dot Blot); assay type: cell-based; details: human fibroblasts, 10 ppm, 24 hours; control = 100
Protocol: The media were exchanged with new medium containing 10 ppm of each test substance. After 24 hours of cultivation, each supernatant was harvested and subjected to the Dot Blot method to measure the amount of produced type VII collagen.

[3] = system: Type I Collagenase (MMP-1); experiment: Inhibition of type I collagenase (MMP-1) biosynthesis after UV-A irradiation, test substances (ELISA); assay type: cell-based; details: new born human fibroblasts, UV-A 15 J/cm^2, 10 μM or 10 ppm, UV negative control = 100; for Type I collagenase biosynthesis (%), UV-A + TNF-α treated group: plus TNF-α 10 ng/ml
Protocol: To describe the experiment method in detail, human fibroblasts isolated from the skin of a new born baby were cultured in a 48-well plate type incubator at a concentration of 10^4. After 24 hours, the plate was irradiated by UV-A at 15 J/cm^2. […] At the second day of cultivation, the supernatants were harvested and subjected to ELISA (AP biotech RPN2610) to determine the amount of produced type I collagenase. As the positive control, Wy-14,643 and retinoic acid (RA) were used.

MMP-2 = experiment: Inhibition of MMP-2 biosynthesis after UV irradiation (gelatin zymography); assay type: cell-based; details: human keratinocytes, UV-B 30 mJ/cm^2, 10 ppm test substance, 2 days; UV control = 100
Protocol: (§1) After 24 hours, the plate was irradiated by UV-B at 30 mJ/cm^2. The media were exchanged with new medium containing 10 ppm of each test substance. After 2 days of cultivation, each supernatant was harvested and subjected to the zymography using gelatine gel to obtain produced MMP-2 and MMP-9, quantities of which were then measured by a densitometer.

MMP-9 = experiment: Inhibition of MMP-9 biosynthesis after UV irradiation (gelatin zymography); assay type: cell-based; details: human keratinocytes, UV-B 30 mJ/cm^2, 10 ppm test substance, 2 days; UV control = 100
Protocol: as §1

[4] = biological target: T1, PPAR-α (Peroxisome Proliferator Activated Receptor-alpha) (Homo sapiens, UniProt Q07869); experiment: Activation of PPAR-α, luciferase reporter in CV-1 cells; assay type: cell-based; details: 24 hours, negative control and non-treated group = 1.0
T1 construct: expressed in transfected cells; host or cells: CV-1 monkey kidney epithelial cells (ATCC CCL 70)
T1 sequence (Q07869 1-468): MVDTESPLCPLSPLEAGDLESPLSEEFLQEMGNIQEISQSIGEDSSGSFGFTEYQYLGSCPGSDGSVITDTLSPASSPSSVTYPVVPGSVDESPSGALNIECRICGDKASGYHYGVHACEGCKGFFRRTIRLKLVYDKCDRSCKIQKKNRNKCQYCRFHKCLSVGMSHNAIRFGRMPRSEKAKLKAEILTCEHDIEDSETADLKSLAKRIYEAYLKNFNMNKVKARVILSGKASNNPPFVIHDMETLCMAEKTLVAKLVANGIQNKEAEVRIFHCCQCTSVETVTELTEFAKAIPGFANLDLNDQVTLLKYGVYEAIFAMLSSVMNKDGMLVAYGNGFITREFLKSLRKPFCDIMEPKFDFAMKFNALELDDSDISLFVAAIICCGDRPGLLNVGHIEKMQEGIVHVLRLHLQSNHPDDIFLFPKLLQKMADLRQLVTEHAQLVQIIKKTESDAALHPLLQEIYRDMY
Protocol: Monkey kidney epithelial cell line CV-1 (ATCC CCL 70) was subcultured in a DMEM medium containing 10% fetal bovine serum treated with charcol/dextran, which was a phenol red-free medium to remove the effect by estrogen of phenol red.
CV-1 cells were distributed in a 24-well plate type incubator at a concentration of 5×10^4. After 24 hours cultivation, the 3 different plasmids were transient transfected. After 24 hours cultivation, the plate was washed with 1×PBS (Phosphate Buffered Saline) and treated with ligand candidates at various concentrations. After 24 hours cultivation, the plate was washed with 1×PBS and the cells were lyzed with 1×PLB (Passive Lysis Buffer) and measured for luciferase activity using Dual-Luciferase® Reporter Assay System kit.

Molecule | type I collagenase, UV-A irradiated group, column headed TNF-α treated group ([1]; UV-A 15 J/cm^2, antibody against TNF-α 1 ug/ml, untreated control = 100 (UV-A without antibody 210)) | type I collagenase, TNF-α treated group, No-Antibody treated group ([1]; new born human fibroblasts, untreated control = 100) | laminin 10/11 biosynthesis (%) (laminin 10/11) | Collagen biosynthesis (pro-collagen; 0.001 μM) | Collagen biosynthesis (pro-collagen; 0.01 μM) | Collagen biosynthesis (pro-collagen; 0.1 μM) | Collagen biosynthesis (pro-collagen; 0.5 μM) | Collagen biosynthesis (pro-collagen; 2 μM) | Type IV collagen biosynthesis (%) (type IV collagen) | TNF-α biosynthesis (%) [2] [%] | type VII collagen biosynthesis (%) (type VII collagen) | Type I collagenase biosynthesis (%), UV-A + TNF-α treated group [3] [%] | Type I collagenase biosynthesis (%), UV-A irradiated group [3] [%] | MMP-2 (%) (MMP-2) | MMP-9 (%) (MMP-9) | PPAR-α activity ([4]; 10 μM) | PPAR-α activity ([4]; 100 μM)
TNF-α | 134 | 250 |  |  |  |  |  |  |  |  |  |  |  |  |  |  | 
O=C(O[C@@H]1Cc2c(O)cc(O)cc2O[C@H]1c1ccc(O)c(O)c1)c1cc(O)c(O)c(O)c1 [CG, catechin gallate] |  |  | 129 | 104.3 | 118.5 | 124.9 | 118.9 | 80.3 | 134 | 37 | 124 | 89 | 53 | 53 | 55 | 1.2 | 1.6
O=C(O[C@@H]1Cc2c(O)cc(O)cc2O[C@H]1c1cc(O)c(O)c(O)c1)c1cc(O)c(O)c(O)c1 [GCG, gallocatechin gallate] |  |  | 131 | 98.9 | 138.3 | 147.0 | 157.1 | 75.2 | 135 | 27 | 121 | 86 | 43 | 53 | 56 |  | 2.3
